# Experiments:
# [1] = target: Beta-2 adrenergic receptor (Bos taurus, UniProt Q28044); assay: Apparent binding affinity constant to beta-2 adrenergic receptor determined using [3H]DHA; conditions: read-out: KD app
# [2] = target: Beta-2 adrenergic receptor (Bos taurus) (UniProt Q28044); assay: Intrinsic activity was measured as concentration of beta-2 adrenergic receptor agonist required for cAMP production; assay type: functional
# [3] = log(1/ISA) value of the compound
# [4] = target: Beta-2 adrenergic receptor (Bos taurus) (UniProt Q28044); assay: Concentration required for maximal (95-100%) beta-2 adrenergic receptor occupancy
# [5] = target: Beta-2 adrenergic receptor (Bos taurus) (UniProt Q28044); assay: Beta-2 adrenergic receptor intrinsic symphaticomimetic activity relative to salbutamol; assay type: functional
# Beta-2 adrenergic receptor (Bos taurus), sequence (Q28044 whole entry, looked up): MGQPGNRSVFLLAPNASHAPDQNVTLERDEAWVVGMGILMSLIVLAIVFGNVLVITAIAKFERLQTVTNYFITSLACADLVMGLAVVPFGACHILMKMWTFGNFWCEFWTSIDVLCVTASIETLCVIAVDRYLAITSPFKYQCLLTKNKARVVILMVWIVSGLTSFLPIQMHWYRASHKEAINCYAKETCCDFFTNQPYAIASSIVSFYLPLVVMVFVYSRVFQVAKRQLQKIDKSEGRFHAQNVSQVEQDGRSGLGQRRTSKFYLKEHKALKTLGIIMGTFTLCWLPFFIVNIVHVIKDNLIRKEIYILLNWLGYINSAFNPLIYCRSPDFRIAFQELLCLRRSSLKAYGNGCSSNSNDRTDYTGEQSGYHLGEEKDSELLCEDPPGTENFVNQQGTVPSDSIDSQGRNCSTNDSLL
# Beta-2 adrenergic receptor, sequence (Q28044 whole entry): as the sequence (Q28044 whole entry, looked up) above
Structure (SMILES),Kd [1] [nM],cAMP production (pM min-1 mg-1) [2],Log 1/ISA [3],Concentration [4] [µM],ISA [5]
CC(C)(C)NCC(O)c1ccccc1 (stereo not given),2940,43,0.46,100,0.35
CC(C)(C)NCC(O)c1ccc(O)c(CO)c1 (stereo not given),,122,,30,1
CC(C)(C)NCC(O)c1cc(Cl)c(N)c(Cl)c1 (stereo not given),,64,,1,0.53
CC(C)(C)NCC(O)c1cc(O)cc(O)c1 (stereo not given),,50,,,0.41
CC(C)(C)NCC(O)c1ccccc1Cl (stereo not given) [TULOBUTEROL],,61,0.3,10,0.5
CC(C)(C)NCC(O)c1ccc(O)cc1 (stereo not given),1350,97,0.1,100,0.8
CC(C)(C)NCC(O)c1cc(Cl)c(O)c(Cl)c1 (stereo not given),6470,47,0.41,300,0.39
CC(C)(C)NCC(O)c1ccc(O)c(C(N)=O)c1 (stereo not given),1030,24,0.7,30,0.2
CC(C)(C)NCC(O)c1ccc(O)c(O)c1 (stereo not given) [COLTEROL],670,83,0.17,,0.68
CNc1cc(C(O)CNC(C)(C)C)ccc1O (stereo not given),560,115,0.02,30,0.95
CC(C)(C)NCC(O)c1ccc(O)c(N)c1 (stereo not given),2170,83,0.17,,0.68

# Reference: ChEMBL document CHEMBL1123159, “Quantitative evaluation of the beta 2-adrenoceptor intrinsic activity of N-tert-butylphenylethanolamines” (J Med Chem, 1986)
